# Source: patent publication US9617244B2, “Antibacterial quinoline derivatives” (JANSSEN PHARMACEUTICA NV, priority 2012, dated 2017)
# Counter-ions that a name gives are not always drawn.
row,Structure (SMILES),melting point
1,COc1nc2ccc(Br)cc2cc1C(c1cccc(Cl)c1)C1(O)CCNC(c2ccc(F)cc2C)C1 (stereo not shown) (as salt: fumarate) [Compound 149],178 °C
2,COc1nc2ccc(Br)cc2cc1C(c1cccc(Cl)c1)C1(O)CCNC(c2ccc(F)cc2C)C1 (stereo not shown) (as salt: fumarate) [Compound 150],184 °C
3,COc1nc2ccc(Br)cc2cc1C(c1cccc(Cl)c1)C1(O)CCNC(c2ccc(F)cc2C)C1 (stereo not shown) (as salt: fumarate) [Compound 151],156 °C
4,COc1nc2ccc(Br)cc2cc1C(c1cccc(Cl)c1)C1(O)CCNC(c2ccc(F)cc2C)C1 (stereo not shown) (as salt: fumarate) [Compound 152],170 °C
5,COc1nc2ccc(SC)cc2cc1C(c1cccc(Cl)c1)C1(O)CCNC(c2ccc(F)cc2C)C1 (stereo not shown) (as salt: fumarate) [Compound 164],170 °C
6,COc1nc2ccc(SC)cc2cc1C(c1cccc(Cl)c1)C1(O)CCNC(c2ccc(F)cc2C)C1 (stereo not shown) (as salt: fumarate) [Compound 165],168 °C
7,COc1nc2ccc(SC)cc2cc1C(c1ccccc1)C1(O)CCNC(c2ccc(F)cc2C)C1 (stereo not shown) (as salt: fumarate) [Compound 170],176 °C
8,COc1nc2ccc(SC)cc2cc1C(c1ccc(Cl)cc1)C1(O)CCNCC1Cc1cccc(F)c1 (stereo not shown) (as salt: fumarate) [Compound 284],163 °C
9,COc1nc2ccc(SC)cc2cc1C(c1ccc(Cl)cc1)C1(O)CCNCC1Cc1cccc(F)c1 (stereo not shown) (as salt: fumarate) [Compound 286],177 °C
10,COc1nc2ccc(SC)cc2cc1C(c1ccc(Cl)cc1)C1(O)CCNC(CC2CCCCC2)C1 (stereo not shown) (as salt: fumarate) [Compound 288],150 °C
11,COc1nc2ccc(Cl)cc2cc1C(c1ccc(SC)cc1)C1(O)CCNC(c2ccc(F)cc2C)C1 (stereo not shown) (as salt: fumarate) [Compound 353],166 to 168 °C
12,COc1nc2ccc(Cl)cc2cc1C(c1ccc(SC)cc1)C1(O)CCNC(c2ccc(F)cc2C)C1 (stereo not shown) (as salt: fumarate) [Compound 354],168 to 170 °C
13,COc1nc2ccc(Cl)cc2cc1C(c1ccc(S(C)(=O)=O)cc1)C1(O)CCNC(c2ccc(F)cc2C)C1 (stereo not shown) (as salt: fumarate) [Compound 368],144 °C
14,COc1nc2ccc(Cl)cc2cc1C(c1ccc(S(C)(=O)=O)cc1)C1(O)CCNC(c2ccc(F)cc2C)C1 (stereo not shown) (as salt: fumarate) [Compound 369],138 °C
15,COc1nc2ccccc2cc1C(c1ccccc1)C1(O)CCNC(Cc2ccccc2)C1 (stereo not shown) (as salt: fumarate) [Compound 399],222 to 224 °C
16,COc1nc2ccccc2cc1C(c1ccccc1)C1(O)CCNC(Cc2ccccc2)C1 (stereo not shown) (as salt: fumarate) [Compound 400],157 °C
17,COc1nc2ccccc2cc1C(c1ccccc1)C1(O)CCNC(Cc2ccccc2)C1 (stereo not shown) (as salt: fumarate) [Compound 401],240 °C
18,COc1nc2ccccc2cc1C(c1ccccc1)C1(O)CCNC(Cc2ccccc2)C1 (stereo not shown) (as salt: fumarate) [Compound 402],175 to 177 °C

row,Structure (SMILES),melting point
1,COc1ccc2nc(OC)c(C(c3ccccc3)C3(O)CCNC(Cc4ccccc4)C3)cc2c1 (stereo not shown) (as salt: fumarate) [Compound 408],135 °C
2,COc1nc2ccc(Cl)cc2cc1C(c1ccc(Cl)cc1)C1(O)CCNCC1c1ccccc1 (stereo not shown) (as salt: fumarate) [Compound 409],190 °C
3,COc1nc2ccc(Cl)cc2cc1C(c1ccc(Cl)cc1)C1(O)CCNCC1c1ccccc1 (stereo not shown) (as salt: fumarate) [Compound 410],155 °C
4,COc1nc2ccc(Cl)cc2cc1C(c1ccc(Cl)cc1)C1(O)CCNCC1c1ccccc1 (stereo not shown) (as salt: fumarate) [Compound 411],168 °C
5,COc1nc2ccc(Cl)cc2cc1C(c1ccc(Cl)cc1)C1(O)CCNCC1c1ccccc1 (stereo not shown) (as salt: fumarate) [Compound 412],166 °C
6,COc1nc2ccccc2cc1C(c1ccccc1)C1(O)CCNC(c2ccccc2)C1 (stereo not shown) (as salt: fumarate) [Compound 413],> 250 °C
7,COc1nc2ccccc2cc1C(c1ccccc1)C1(O)CCNC(c2ccccc2)C1 (stereo not shown) (as salt: fumarate) [Compound 414],196 °C
8,COc1nc2ccccc2cc1C(c1ccccc1)C1(O)CCNC(c2ccccc2)C1 (stereo not shown) (as salt: fumarate) [Compound 415],160 °C
9,COc1nc2ccccc2cc1C(c1ccccc1)C1(O)CCNC(c2ccc(F)cc2C)C1 (stereo not shown) (as salt: fumarate) [Compound 416],160 to 162 °C
10,COc1nc2ccc(F)cc2cc1C(c1ccc(S(C)(=O)=O)cc1)C1(O)CCNC(c2ccc(F)cc2C)C1 (stereo not shown) (as salt: fumarate) [Compound 418],164 to 166 °C
11,COc1nc2ccc(Br)cc2cc1C(c1cccnc1)C1(O)CCNC(Cc2ccccc2)C1 (stereo not shown) (as salt: fumarate) [Compound 427],174 °C
12,COc1nc2ccc(Br)cc2cc1C(c1cccnc1)C1(O)CCNC(Cc2ccccc2)C1 (stereo not shown) (as salt: fumarate) [Compound 428],217 °C
13,COc1nc2ccc(Br)cc2cc1C(n1cccn1)C1(O)CCNC(Cc2ccccc2)C1 (stereo not shown) (as salt: fumarate) [Compound 429],> 260 °C
14,COc1nc2ccc(Cl)cc2cc1C(c1ccc(Cl)cc1)C1(O)CCNC(c2ccc3ccccc3c2)C1 (stereo not shown) (as salt: fumarate) [Compound 430],184 °C
15,COc1nc2ccc(Cl)cc2cc1C(c1ccc(Cl)cc1)C1(O)CCNC(c2ccc3ccccc3c2)C1 (stereo not shown) (as salt: fumarate) [Compound 431],178 °C
16,COc1nc2ccc(Cl)cc2cc1C(c1ccc(Cl)cc1)C1(O)CCNC(c2ccc3ccccc3c2)C1 (stereo not shown) (as salt: fumarate) [Compound 432],167 °C
17,COc1nc2ccccc2cc1C(c1ccccc1)C1(O)CCNC(c2ccc(F)cc2C)C1 (stereo not shown) (as salt: fumaric acid salt) [Compound 16],166 to 168 °C

# Further lines, results first:
row,melting point,Structure (SMILES)
1,195 °C,COc1nc2ccc(S(C)(=O)=O)cc2cc1C(c1ccc(Cl)cc1)C1(O)CCNC(c2ccc(F)cc2C)C1 (stereo not shown) (as salt: fumarate) [Compound 201]
2,213 °C,CS(=O)(=O)c1ccc2[nH]c(=O)c(C(c3ccc(Cl)cc3)C3(O)CCNC(Cc4ccc(F)c(F)c4)C3)cc2c1 (stereo not shown) (as salt: fumarate) [Compound 214]
3,170 °C,COc1nc2ccc(F)cc2cc1C(c1ccc(Cl)cc1)C1(O)CCNC(c2ccc(F)cc2C)C1 (stereo not shown) (as salt: fumarate) [Compound 330]
4,166 °C,COc1nc2ccc(F)cc2cc1C(c1ccc(Cl)cc1)C1(O)CCNC(c2ccc(F)cc2C)C1 (stereo not shown) (as salt: fumarate) [Compound 331]
5,164 °C,COc1nc2ccc(F)cc2cc1C(c1ccc(Cl)cc1)C1(O)CCNC(c2ccc(F)cc2C)C1 (stereo not shown) (as salt: fumarate) [Compound 332]
6,152 to 154 °C,COc1nc2ccc(Cl)cc2cc1C(c1ccc(Cl)cc1)C1(O)CCNC(Cc2ccc(F)cc2)C1 (stereo not shown) (as salt: fumarate) [Compound 345]
7,151 to 153 °C,COc1nc2ccc(Cl)cc2cc1C(c1ccc(Cl)cc1)C1(O)CCNC(Cc2ccc(F)cc2)C1 (stereo not shown) (as salt: fumarate) [Compound 346]
8,148 to 150 °C,COc1nc2ccc(Cl)cc2cc1C(c1ccc(Cl)cc1)C1(O)CCNC(Cc2ccc(F)cc2)C1 (stereo not shown) (as salt: fumarate) [Compound 347]
9,145 °C,COc1nc2ccc(Cl)cc2cc1C(c1ccc(Cl)cc1)C1(O)CCNC(Cc2ccc(F)cc2)C1 (stereo not shown) (as salt: fumarate) [Compound 348]
10,176 °C,COc1nc2ccc(Cl)cc2cc1C(c1ccc(Cl)cc1)C1(O)CCNC(c2ccccc2)C1 (stereo not shown) (as salt: fumarate) [Compound 403]
11,168 °C,COc1nc2ccc(Cl)cc2cc1C(c1ccc(Cl)cc1)C1(O)CCNC(c2ccccc2)C1 (stereo not shown) (as salt: fumarate) [Compound 404]
12,184 °C,COc1nc2ccc(Cl)cc2cc1C(c1ccc(Cl)cc1)C1(O)CCNC(c2ccccc2)C1 (stereo not shown) (as salt: fumarate) [Compound 405]
13,224 °C,O=c1[nH]c2ccc(Br)cc2cc1C(c1ccc(Cl)cc1)C1(O)CCNC(Cc2ccc(F)c(F)c2)C1 (stereo not shown) (as salt: hydrochloride) [Compound 40]
14,183 °C,O=c1[nH]c2ccc(Br)cc2cc1C(c1ccc(Cl)cc1)C1(O)CCNCC1Cc1cccc(F)c1 (stereo not shown) (as salt: hydrochloride) [Compound 49]
15,> 260 °C,O=c1[nH]c2ccc(Br)cc2cc1C(c1cccc(Cl)c1)C1(O)CCNC(Cc2ccccc2)C1 (stereo not shown) (as salt: hydrochloride) [Compound 85]
16,> 250 °C,Cc1cc(F)ccc1C1CC(O)(C(c2ccc(Cl)cc2)c2cc3cc(Br)ccc3[nH]c2=O)CCN1 (stereo not shown) (as salt: hydrochloride) [Compound 106]
17,> 260 °C,O=c1[nH]c2ccc(Br)cc2cc1[C@@H](c1ccc(Cl)cc1)[C@]1(O)CCNC(Cc2ccccc2)C1 (stereo partly shown) (as salt: hydrochloride) [Compound 121]
18,> 260 °C,O=c1[nH]c2ccc(Br)cc2cc1C(c1ccc(Cl)cc1)C1(O)CCNC(Cc2ccc(F)c(F)c2)C1 (stereo not shown) (as salt: hydrochloride) [Compound 126]
19,240 °C,CC1CC(O)(C(c2ccc(Cl)cc2)c2cc3cc(Br)ccc3[nH]c2=O)CCN1 (stereo not shown) (as salt: hydrochloride) [Compound 129]
20,200 °C,CC1CC(O)(C(c2ccc(Cl)cc2)c2cc3cc(Br)ccc3[nH]c2=O)CCN1 (stereo not shown) (as salt: hydrochloride) [Compound 130]
21,241 °C,CC1CC(O)(C(c2ccc(Cl)cc2)c2cc3cc(Br)ccc3[nH]c2=O)CCN1 (stereo not shown) (as salt: hydrochloride) [Compound 131]
22,244 °C,CC1CC(O)(C(c2ccc(Cl)cc2)c2cc3cc(Br)ccc3[nH]c2=O)CCN1 (stereo not shown) (as salt: hydrochloride) [Compound 132]
23,233 °C,O=c1[nH]c2ccc(Br)cc2cc1C(c1ccc(Cl)cc1)C1(O)CCNC(Cc2ccc(F)c(F)c2)C1 (stereo not shown) (as salt: hydrochloride) [Compound 134]
